Assay results taken from ChEMBL document CHEMBL3217664, “Synthesis and biological evaluation of 4-chlorocolchicine derivatives as potent anticancer agents with broad effective dosage ranges” (Medchemcomm, 2012).

Experiments:
HT-29 = assay: Cytotoxicity against human HT-29 cells after 96 hrs by microplate reader analysis; type: functional, cell-based; conditions: HT-29, 96 h
Liver = assay: Metabolic stability in BALB/c mouse liver microsomes at 1 umol/l by LC-MS/MS analysis; type: ADME; conditions: 1 µM
A549 = assay: Cytotoxicity against human A549 cells after 96 hrs by microplate reader analysis; type: functional, cell-based; conditions: A549, 96 h
HCT-116 [1] = assay: Cytotoxicity against human HCT116 cells after 96 hrs by microplate reader analysis; type: functional, cell-based; conditions: HCT-116, 96 h
HCT-116 [2] = assay: Antitumor activity against human HCT116 cells xenografted in BALB/c mouse assessed as tumor growth inhibition at 25 mg/kg/day, iv administered on day 1, 5 and 9 relative to control; type: functional; conditions: HCT-116, 24 h, read-out: TGI
Mus musculus [3] = assay: Toxicity in BALB/c mouse assessed as mortality at 12.5 mg/kg/day, iv administered on day 1, 5 and 9; type: organism-based; design: route intravenous; conditions: in vivo
HCT-116 [4] = assay: Antitumor activity against human HCT116 cells xenografted in BALB/c mouse assessed as tumor growth inhibition at 12.5 mg/kg/day, iv administered on day 1, 5 and 9 relative to control; type: functional; conditions: HCT-116, 24 h, read-out: TGI
HCT-116 [5] = assay: Antitumor activity against human HCT116 cells xenografted in BALB/c mouse assessed as tumor growth inhibition at 0.75 mg/kg/day, iv administered on day 1, 5 and 9 relative to control; type: functional; conditions: HCT-116, 24 h, read-out: TGI
Mus musculus [6] = assay: Toxicity in BALB/c mouse assessed as mortality at 1.5 mg/kg/day, iv administered on day 1, 5 and 9; type: organism-based; design: route intravenous; conditions: in vivo
HCT-116 [7] = assay: Antitumor activity against human HCT116 cells xenografted in BALB/c mouse assessed as tumor growth inhibition at 1.5 mg/kg/day, iv administered on day 1, 5 and 9 relative to control; type: functional; conditions: HCT-116, 24 h, read-out: TGI
Mus musculus [8] = assay: Toxicity in BALB/c mouse assessed as mortality at 0.75 mg/kg/day, iv administered on day 1, 5 and 9; type: organism-based; design: route intravenous; conditions: in vivo
Mus musculus [9] = assay: Toxicity in BALB/c mouse assessed as mortality at 1.875 mg/kg/day, iv administered on day 1, 5 and 9; type: organism-based; design: route intravenous; conditions: in vivo
HCT-116 [10] = assay: Antitumor activity against human HCT116 cells xenografted in BALB/c mouse assessed as tumor growth inhibition at 1.875 mg/kg/day, iv administered on day 1, 5 and 9 relative to control; type: functional; conditions: HCT-116, 24 h, read-out: TGI
Mus musculus [11] = assay: Toxicity in BALB/c mouse assessed as mortality at 7.5 mg/kg/day, iv administered on day 1, 5 and 9; type: organism-based; design: route intravenous; conditions: in vivo
HCT-116 [12] = assay: Antitumor activity against human HCT116 cells xenografted in BALB/c mouse assessed as tumor growth inhibition at 3.75 mg/kg/day, iv administered on day 1, 5 and 9 relative to control; type: functional; conditions: HCT-116, 24 h, read-out: TGI
HCT-116 [13] = assay: Antitumor activity against human HCT116 cells xenografted in BALB/c mouse assessed as tumor growth inhibition at 7.5 mg/kg/day, iv administered on day 1, 5 and 9 relative to control; type: functional; conditions: HCT-116, 24 h, read-out: TGI
Mus musculus [14] = assay: Toxicity in BALB/c mouse assessed as mortality at 3.75 mg/kg/day, iv administered on day 1, 5 and 9; type: organism-based; design: route intravenous; conditions: in vivo
HCT-116 [15] = assay: Antitumor activity against human HCT116 cells xenografted in BALB/c mouse assessed as tumor growth inhibition at 15 mg/kg/day, iv administered on day 1, 5 and 9 relative to control; type: functional; conditions: HCT-116, 24 h, read-out: TGI
Mus musculus [16] = assay: Toxicity in BALB/c mouse assessed as mortality at 15 mg/kg/day, iv administered on day 1, 5 and 9; type: organism-based; design: route intravenous; conditions: in vivo
Mus musculus [17] = assay: Toxicity in BALB/c mouse assessed as mortality at 5 mg/kg/day, iv administered on day 1, 5 and 9; type: organism-based; design: route intravenous; conditions: in vivo
Mus musculus [18] = assay: Toxicity in BALB/c mouse assessed as mortality at 10 mg/kg/day, iv administered on day 1, 5 and 9; type: organism-based; design: route intravenous; conditions: in vivo
HCT-116 [19] = assay: Antitumor activity against human HCT116 cells xenografted in BALB/c mouse assessed as tumor growth inhibition at 10 mg/kg/day, iv administered on day 1, 5 and 9 relative to control; type: functional; conditions: HCT-116, 24 h, read-out: TGI
HCT-116 [20] = assay: Antitumor activity against human HCT116 cells xenografted in BALB/c mouse assessed as tumor growth inhibition at 5 mg/kg/day, iv administered on day 1, 5 and 9 relative to control; type: functional; conditions: HCT-116, 24 h, read-out: TGI

Structure (SMILES)	IC50 (HT-29) [nM]	IC50 (A549)	IC50 (HCT-116 [1]) [nM]	also measured
CCC(=O)N[C@H]1CCc2c(Cl)c(OC)c(OC)c(OC)c2-c2ccc(OC)c(=O)cc21	3.3	7.8 nM	7.5	Stability (Liver): 302 µL/min/mg; inhibition in vivo at 25 mg/kg/day (HCT-116 [2]): 76.1%; Activity (Mus musculus [3]): Non-toxic; inhibition in vivo at 12.5 mg/kg/day (HCT-116 [4]): 57.3%
COc1c(Cl)c2c(c(OC)c1OC)-c1ccc(OC)c(=O)cc1[C@@H](NC(=O)c1ccccc1F)CC2	1.5	1.7 nM	1.6	
COc1cc2c(c(OC)c1OC)-c1ccc(OC)c(=O)cc1[C@@H](NC(C)=O)CC2 [COLCHICINE]				Stability (Liver): 1 µL/min/mg; inhibition in vivo at 0.75 mg/kg/day (HCT-116 [5]): 14%; Activity (Mus musculus [6]): Non-toxic; inhibition in vivo at 1.5 mg/kg/day (HCT-116 [7]): 92.6%; Activity (Mus musculus [8]): Non-toxic
COc1c(Cl)c2c(c(OC)c1OC)-c1ccc(OC)c(=O)cc1[C@@H](NC(=O)CS)CC2	209	400 nM	192	
COc1c(Cl)c2c(c(OC)c1OC)-c1ccc(OC)c(=O)cc1[C@@H](NC(=O)c1cccc([N+](=O)[O-])c1)CC2	0.1	1.7 nM	0.8	
COc1c(Cl)c2c(c(OC)c1OC)-c1ccc(OC)c(=O)cc1[C@@H](NC(=O)[C@@H](C)O)CC2	7.2	19.5 nM	7.7	
COc1c(Cl)c2c(c(OC)c1OC)-c1ccc(OC)c(=O)cc1[C@@H](NC(C)=O)CC2				Activity (Mus musculus [9]): Non-toxic; Stability (Liver): 28 µL/min/mg; inhibition in vivo at 1.875 mg/kg/day (HCT-116 [10]): 36.7%; Activity (Mus musculus [11]): Non-toxic; inhibition in vivo at 3.75 mg/kg/day (HCT-116 [12]): 56.4%; inhibition in vivo at 7.5 mg/kg/day (HCT-116 [13]): 62.6%; Activity (Mus musculus [14]): Non-toxic; inhibition in vivo at 15 mg/kg/day (HCT-116 [15]): 76.5%; Activity (Mus musculus [16]): Non-toxic
COc1c(Cl)c2c(c(OC)c1OC)-c1ccc(OC)c(=O)cc1[C@@H](NC(=O)C(F)(F)F)CC2	1.5	1.8 nM	1.5	Activity (Mus musculus [17]): Non-toxic; Activity (Mus musculus [18]): Non-toxic; Stability (Liver): 339 µL/min/mg; inhibition in vivo at 10 mg/kg/day (HCT-116 [19]): 62.7%; inhibition in vivo at 5 mg/kg/day (HCT-116 [20]): 30.6%
COc1c(Cl)c2c(c(OC)c1OC)-c1ccc(OC)c(=O)cc1[C@@H](NC(=O)c1ccc(C#N)cc1)CC2	6.7	11.9 nM	6.7	
COc1c(Cl)c2c(c(OC)c1OC)-c1ccc(OC)c(=O)cc1[C@@H](NC(=O)CCN(C)C)CC2	354	960 nM	539	
CCCCCCC(=O)N[C@H]1CCc2c(Cl)c(OC)c(OC)c(OC)c2-c2ccc(OC)c(=O)cc21	38.3	49.7 nM	36.9	
COc1ccc(C(=O)N[C@H]2CCc3c(Cl)c(OC)c(OC)c(OC)c3-c3ccc(OC)c(=O)cc32)c(OC)c1	53.1	85.4 nM	57.3	
COc1c(Cl)c2c(c(OC)c1OC)-c1ccc(OC)c(=O)cc1[C@@H](NC(=O)c1ccccc1C#N)CC2	49.7	140 nM	104	
COc1ccc(C(=O)N[C@H]2CCc3c(Cl)c(OC)c(OC)c(OC)c3-c3ccc(OC)c(=O)cc32)cc1	8	3.8 nM	8	
COc1cccc(C(=O)N[C@H]2CCc3c(Cl)c(OC)c(OC)c(OC)c3-c3ccc(OC)c(=O)cc32)c1	1.4	2.7 nM	1.6	
CCC(O)(CC)C(=O)N[C@H]1CCc2c(Cl)c(OC)c(OC)c(OC)c2-c2ccc(OC)c(=O)cc21	36.5	38 nM	38.7	
COc1c(Cl)c2c(c(OC)c1OC)-c1ccc(OC)c(=O)cc1[C@@H](NC(=O)c1ccccc1[N+](=O)[O-])CC2	31.7	56.6 nM	30.2	
COc1c(Cl)c2c(c(OC)c1OC)-c1ccc(OC)c(=O)cc1[C@@H](NC(=O)c1cccc(F)c1)CC2	1.5	3.5 nM	1.6	
COc1c(Cl)c2c(c(OC)c1OC)-c1ccc(OC)c(=O)cc1[C@@H](N)CC2	225	241 nM	207	
COc1c(Cl)c2c(c(OC)c1OC)-c1ccc(OC)c(=O)cc1[C@@H](NC(=O)[C@H](C)O)CC2	8.5	18.7 nM	7.9	

Structure (SMILES)	IC50 (HT-29) [nM]	IC50 (A549)	IC50 (HCT-116 [1]) [nM]	also measured
COc1c(Cl)c2c(c(OC)c1OC)-c1ccc(OC)c(=O)cc1[C@@H](NC(=O)CC(C)C)CC2	16.1	40.3 nM	23.7	
COc1cc(C(=O)N[C@H]2CCc3c(Cl)c(OC)c(OC)c(OC)c3-c3ccc(OC)c(=O)cc32)cc(OC)c1OC	47.7	124 nM	51.7	
COc1ccccc1C(=O)N[C@H]1CCc2c(Cl)c(OC)c(OC)c(OC)c2-c2ccc(OC)c(=O)cc21	12.5	13.2 nM	26.4	
COc1c(Cl)c2c(c(OC)c1OC)-c1ccc(OC)c(=O)cc1[C@@H](NC(=O)c1cc([N+](=O)[O-])cc([N+](=O)[O-])c1)CC2	5	31.2 nM	6.8	
COc1c(Cl)c2c(c(OC)c1OC)-c1ccc(OC)c(=O)cc1[C@@H](NC(=O)c1ccc(F)cc1)CC2	2.2	6.7 nM	5.5	
COc1c(Cl)c2c(c(OC)c1OC)-c1ccc(OC)c(=O)cc1[C@@H](NC(=O)CN(C)C)CC2	46	160 nM	67	
COc1c(Cl)c2c(c(OC)c1OC)-c1ccc(OC)c(=O)cc1[C@@H](NC(=O)CCCO)CC2	168	357 nM	175	
COc1c(Cl)c2c(c(OC)c1OC)-c1ccc(OC)c(=O)cc1[C@@H](NC(=O)CCCC(=O)O)CC2	2250	5360 nM	3680	
CCCC(=O)N[C@H]1CCc2c(Cl)c(OC)c(OC)c(OC)c2-c2ccc(OC)c(=O)cc21	8.3	9.8 nM	7.6	
COc1c(Cl)c2c(c(OC)c1OC)-c1ccc(OC)c(=O)cc1[C@@H](NC(=O)c1ccc([N+](=O)[O-])cc1)CC2	6.9	11.2 nM	6.2	
COc1c(Cl)c2c(c(OC)c1OC)-c1ccc(OC)c(=O)cc1[C@@H](NC(=O)c1ccccc1)CC2	1.6	4.7 nM	1.4	
COc1c(Cl)c2c(c(OC)c1OC)-c1ccc(OC)c(=O)cc1[C@@H](NC(=O)c1ccccc1N(C)C)CC2	186	206 nM	171	
COc1c(Cl)c2c(c(OC)c1OC)-c1ccc(OC)c(=O)cc1[C@@H](NC(=O)c1cccc(C#N)c1)CC2	1.6	7.4 nM	4.1	
COc1c(Cl)c2c(c(OC)c1OC)-c1ccc(OC)c(=O)cc1[C@@H](NC(=O)C1CCCCC1)CC2	7.1	10.4 nM	7.2	
COc1c(Cl)c2c(c(OC)c1OC)-c1ccc(OC)c(=O)cc1[C@@H](NC(=O)c1cc(F)c(F)c(F)c1)CC2	6.3	6.6 nM	7.2	
COc1c(Cl)c2c(c(OC)c1OC)-c1ccc(OC)c(=O)cc1[C@@H](NC(=O)CCO)CC2	46.1	230 nM	48.6	
COc1c(Cl)c2c(c(OC)c1OC)-c1ccc(OC)c(=O)cc1[C@@H](NC(=O)c1ccc(N(C)C)cc1)CC2	148	169 nM	150	
COc1c(Cl)c2c(c(OC)c1OC)-c1ccc(OC)c(=O)cc1[C@@H](NC(=O)CCC(=O)O)CC2	6270	> 5 µg/mL	6580	
COc1cc(OC)cc(C(=O)N[C@H]2CCc3c(Cl)c(OC)c(OC)c(OC)c3-c3ccc(OC)c(=O)cc32)c1	7.9	14.2 nM	6.5	
